Measurements from patent US20040228868A1, “Apo-2L receptor agonist and CPT-11 synergism” (Genentech, Inc., priority 1999, published 2004).

Tested on: COLO205 colon carcinoma cells
Assay: COLO205 colon carcinoma xenograft tumor growth in athymic nude mice (Example 1)
Assay type: in vivo, human
Settings: Apo-2L 30 mg/kg/day days 0-4 and 7-11, CPT-11 80 mg/kg/day days 0, 4, 8; for animals in which tumor growth resumed several days after the treatment period: of 9 mice per group
Description: The colon carcinoma cell line COLO205 (available from NCI) were grown and maintained according to the supplier's methods. Briefly, COLO205 cells were cultured in high glucose DMEM/F12 (50:50) media containing 10% fetal bovine serum and 2.0 mM-L-Glutamine. […] Cell-paste containing recombinant human soluble Apo-2L was extracted with a buffer containing 0.1M Tris/0.2M NaCl/50 mM EDTA, pH 8.0. The extract was precipitated by 40% ammonium sulfate. […] Purity was determined by sodium-dodecyl sulfate (SDS)-polyacrylamide gel electrophoresis and silver-nitrate or coomassie-blue staining, by amino acid sequence analysis, and by size-exclusion on high performance liquid chromatography (HPLC). CPT-11 (Camptosar®) was obtained from Pharmacia & Upjohn.
Athymic nude mice (Jackson Laboratories) were injected subcutaneously with 5 million COLO205 colon carcinoma cells and the tumors allowed to grow to about 120 mm^3. Tumor-bearing mice were randomized into 4 groups at 9 mice per group and treated with either vehicle (20 mM Tris, 8% Trehalose, 0.01 Tween-20, pH 7.5), Apo-2L (30 mg/kg/day on days 0-4 and 7-11), or CPT-11 (80 mg/kg/day on days 0, 4, and 8), or a combination of Apo-2L (30 mg/kg/day on days 0-4 and 7-11) plus CPT-11 (80 mg/kg/day on days 0, 4, and 8). Tumor volumes were determined at the indicated days over 34 days.

Molecule | animals in which tumor growth resumed several days after the treatment period | effect on tumor growth (tumor volume, FIG. 1) (s.c. COLO205 tumors about 120 mm^3, 9 mice per group, followed 34 days)
CCc1c2c(nc3ccc(OC(=O)N4CCC(N5CCCCC5)CC4)cc13)-c1cc3c(c(=O)n1C2)COC(=O)[C@]3(O)CC.Cl.O.O.O [CPT-11, (4S)-4,11-diethyl-4-hydroxy-9-[(4-piperidino-piperidino)carbonyloxyl]-1H-pyrano[3′,4′:6,7]indolizino[1,2-b]quinoline-3,14(4H,12H)dione hydrochloride trihydrate] | 9 animals | 
Apo-2L: recombinant human soluble Apo-2L, extracellular portion amino acids 114-281, prepared in E. coli | 9 animals | suppressed tumor growth during the treatment period
